What was measured:
[1] = test system: BEAS2B cells; assay: Cell viability: resazurin assay; format: cell-based; details: at concentrations indicated in Table 4
[2] = test system: IL-6; assay: Serum IL-6 in Aspergillus fumigatus infected, immunocompromised, neutropenic mice; format: in vivo, A/J mice; details: for IL-6 in serum, % Inhibition / Conc of Biomarkers, IL-6 in serum: therapeutic; for Conc of Biomarkers, IL-6 in serum: mean ± SEM, N = 6
Description: (§1) Aspergillus fumigatus (ATCC 13073 [strain: NIH 5233], American Type Culture Collection, Manassas, Va., USA) was grown on Malt agar (Nissui Pharmaceutical, Tokyo, Japan) plates for 6-7 days at RT (24±1° C.). Spores were aseptically dislodged from the agar plates and suspended in sterile distilled water with 0.05% Tween 80 and 0.1% agar. On the day of infection, spore counts were assessed by haemocytometer and the inoculum was adjusted to obtain a concentration of 1.67×10^8 spores mL^−1 of physiological saline. […] On day 0, animals were infected with the spore suspension (30 μL intra-nasally).
(§2) Test substances were administered intra-nasally (35 μL of a suspension (0.0032-10.0 mg/mL of drug substance in physiological saline) once daily, on days 1, 2 and 3 only (thereby representing a therapeutic treatment regimen). For extended prophylactic treatment, test compounds (35 μL of a suspension of 0.0032 or 0.016 mg/mL in physiological saline) were administered intra-nasally once daily for seven days. One group was dosed 30 min before infection on day 0 but not subsequently, while a second group was further dosed on days 1, 2 and 3 after infection. The effects of these treatment paradigms were compared with those obtained when treatment was restricted in other groups to either one day or 30 min before inoculation and then on days 1, 2 and 3 post infection in both cases. In a final group, dosing was limited still further with animals dosed twice, one day and 30 min before infection only.
(§3) Animal body weights were monitored daily and at 6 hr after the last dose of drug was administered on day 3, the animals were anesthetised, the tracheas cannulated and BALF blood and lung tissue were collected. The levels of IL-6 and TNFα in serum were determined using Quantikine® mouse IL-6 or TNF-α ELISA kit (R&D systems, Inc., Minneapolis, Minn., USA) respectively. Aspergillus GM in serum was determination using Platelia GM-EIA kits (Bio-Rad Laboratories, Redmond, Wash., USA). Cut-off index (COI) was calculated by the formula: Cut-off index=OD in sample/OD in cut-off control provided in kit. For tissue fungal load assays, 100 mg of lung tissue was removed aseptically and homogenized in 0.2 mL of 0.1% agar in sterile distilled water. Serially diluted lung homogenates were plated on Malt agar plates (50 μL/plate), and incubated at 24±1° C. for 72 to 96 h. The colonies of A. fumigatus on each plate were counted and the fungal titre presented herein as CFUs per gram of lung tissue.

[3] = test system: Aspergillus fumigatus (ATCC 13073); assay: In vivo anti-fungal activity, extended prophylactic dosing in infected immunocompromised neutropenic mice; design: species or system A/J mice; details: for CFU in lung: mean ± SEM, N = 5
Description: as §1
as §2, with “For extended prophylactic treatment, test compounds (35 μL of a suspension of 0.0032 or 0.016 mg/mL in physiological saline) were administered intra-nasally once daily for seven days.” left out
as §3

[4] = Days dosed −1 to + 3, 0.64 μg/mL
[5] = Days dosed −1 to + 3, 3.2 μg/mL
[6] = Days dosed −7 to + 3, 0.64 μg/mL
[7] = Days dosed −7 to + 3, 3.2 μg/mL

With `Cc1cc(N2CCN(c3ccc(C(=O)N[C@H]4CCCC[C@@H]4O)cc3)CC2)ccc1OC[C@@H]1CO[C@@](Cn2cncn2)(c2ccc(F)cc2F)C1` [Compound (Ia), 4-(4-(4-(((3R,5R)-5-((1H-1,2,4-triazol-1-yl)methyl)-5-(2,4-difluorophenyl)tetrahydrofuran-3-yl)methoxy)-3-methylphenyl)piperazin-1-yl)-N-((1S,2S)-2-hydroxycyclohexyl) benzamide] the “effect on the viability of BEAS2B bronchial epithelial cells” value [1] was “no or little effect”, the “IL-6 in serum, % Inhibition” value ([2]; Drug Conc 3.2 μg/mL) was 17% and the “Conc of Biomarkers, IL-6 in serum” value ([2]; Drug Conc 3.2 μg/mL) was 247 ± 185 pg/mL. For the same compound, the “IL-6 in serum, % Inhibition” value ([2]; Drug Conc 16 μg/mL) was 12%, the “Conc of Biomarkers, IL-6 in serum” value ([2]; Drug Conc 16 μg/mL) was 262 ± 185 pg/mL and the “IL-6 in serum, % Inhibition” value ([2]; Drug Conc 80 μg/mL) was 78%. For the same compound, the “Conc of Biomarkers, IL-6 in serum” value ([2]; Drug Conc 80 μg/mL) was 66.5 ± 32.9 pg/mL, the “ID50 Values for biomarkers indicated, IL-6” value ([2]; serum, title: Therapeutic Treatment) was 50 µg/mL and the “CFU in lung, % Inhibition” value ([3]; Days dosed −1, 0, 3.2 μg/mL) was −222%. For the same compound, the “GM in BALF” value ([3]; Days dosed −1, 0, 3.2 μg/mL) was 4.5 ± 0.63 COI, the “GM in BALF, % Inhibition” value ([3]; Days dosed −1, 0, 3.2 μg/mL) was −10% and the “GM in Serum” value ([3]; Days dosed −1, 0, 3.2 μg/mL) was 4.7 ± 0.65 COI. For the same compound, the “GM in Serum, % Inhibition” value ([3]; Days dosed −1, 0, 3.2 μg/mL) was −21%, the CFU in lung ([3]; Days dosed −1, 0, 3.2 μg/mL intranasal) was 20.4 ± 15.7 /mg of lung and the “CFU in lung, % Inhibition” value [3, 4] was 57%. The “GM in BALF” value [3, 4] was 3.9 ± 0.59 COI, the “GM in BALF, % Inhibition” value [3, 4] was 5% and the “GM in Serum” value [3, 4] was 3.6 ± 0.52 COI. The “GM in Serum, % Inhibition” value [3, 4] was 8%, the CFU in lung ([3]; Days dosed −1 to + 3, 0.64 μg/mL intranasal) was 4.0 ± 5.2 /mg of lung and the “CFU in lung, % Inhibition” value [3, 5] was 89%. For the same compound, the “GM in BALF” value [3, 5] was 3.4 ± 0.46 COI, the “GM in BALF, % Inhibition” value [3, 5] was 17% and the “GM in Serum” value [3, 5] was 2.8 ± 0.24 COI. For the same compound, the “GM in Serum, % Inhibition” value [3, 5] was 28%, the CFU in lung ([3]; Days dosed −1 to + 3, 3.2 μg/mL intranasal) was 1.0 ± 1.4 /mg of lung and the “CFU in lung, % Inhibition” value ([3]; Days dosed −7 to 0, 3.2 μg/mL) was 90%. The “GM in BALF” value ([3]; Days dosed −7 to 0, 3.2 μg/mL) was 2.9 ± 0.97 COI, the “GM in BALF, % Inhibition” value ([3]; Days dosed −7 to 0, 3.2 μg/mL) was 29% and the “GM in Serum” value ([3]; Days dosed −7 to 0, 3.2 μg/mL) was 2.6 ± 0.48 COI. The “GM in Serum, % Inhibition” value ([3]; Days dosed −7 to 0, 3.2 μg/mL) was 33%, the CFU in lung ([3]; Days dosed −7 to 0, 3.2 μg/mL intranasal) was 0.9 ± 1.1 /mg of lung and the “CFU in lung, % Inhibition” value [3, 6] was 78%. For the same compound, the “GM in BALF” value [3, 6] was 3.1 ± 0.85 COI, the “GM in BALF, % Inhibition” value [3, 6] was 24% and the “GM in Serum” value [3, 6] was 2.6 ± 0.82 COI. The “GM in Serum, % Inhibition” value [3, 6] was 33%, the CFU in lung ([3]; Days dosed −7 to + 3, 0.64 μg/mL intranasal) was 2.0 ± 3.6 /mg of lung and the “CFU in lung, % Inhibition” value [3, 7] was 99.6%. For the same compound, the “GM in BALF” value [3, 7] was 1.5 ± 0.59 COI, the “GM in BALF, % Inhibition” value [3, 7] was 63% and the “GM in Serum” value [3, 7] was 1.5 ± 0.85 COI. The “GM in Serum, % Inhibition” value [3, 7] was 62% and the CFU in lung ([3]; Days dosed −7 to + 3, 3.2 μg/mL intranasal) was 0.04 ± 0.08 /mg of lung.

— patent publication US10513511B2, “Aqueous suspension formulation comprising 4-(4-(4-(((3R,5R)-5-((1H-1,2,4-triazol-1-yl)methyl)-5-(2,4-difluoro-phenyl)tetrahydrofuran-3-yl)methoxy)-3-methylphenyl) or a pharmaceutically acceptable salt thereof” (PULMOCIDE LIMITED, priority 2015, dated 2019)
